Results reported in PubChem BioAssay AID743116 (Broad Institute, 2013).
Active and inactive are the calls of the source.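 Rule for the calls: active = compounds whose dose curve reaches a melting temperature rise of about 0.39 degC within the tested concentrations; inconclusive = flat curve with moderate shift, or unreliable curve fit; inactive = the rest.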

Target: Fibroblast growth factor 22 (Homo sapiens) (UniProt Q9HCT0)
Assay: ligand stabilization of recombinant FGF22 – biophysical, SYPRO orange melt, qPCR instrument, dry powder, dose response (AID 743116)
Details: Recombinant FGF22 thermal shift, SYPRO orange fluorescence

Fibroblast growth factor 22 (Homo sapiens), sequence (Q9HCT0 whole entry, looked up): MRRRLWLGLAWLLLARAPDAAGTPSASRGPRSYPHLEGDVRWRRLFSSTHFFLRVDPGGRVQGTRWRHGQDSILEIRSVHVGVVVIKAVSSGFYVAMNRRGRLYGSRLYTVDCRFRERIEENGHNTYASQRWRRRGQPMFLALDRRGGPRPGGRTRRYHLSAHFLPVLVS

Row | SMILES | melting temperature shift, positive = stabilization (at 38 µM (top of the series)) | further results
1 | O=S(=O)(Nc1nnc(C(F)(F)F)s1)c1ccc(Cl)cc1 | inactive | –
2 | COC(=O)C[C@H]1CC[C@@H]2[C@@H](COc3ccc(NC(=O)Nc4cccc(C#N)c4)cc3C(=O)N2C)O1 | inactive | –
3 | O=C(Nc1ccc(S(=O)(=O)N2CCOCC2)cc1)c1ccc(F)cc1 | inactive | –
4 | Cc1ccn(-c2ccc(NC(=O)c3cccs3)cc2)n1 | inactive | –
5 | O=C(Nc1ccc(S(=O)(=O)N2CCCC2)cc1)c1ccccc1 | – | AC50: 36.6 µM
6 | CSc1ccc(/C=N/NC(=O)c2ccc3nc[nH]c3c2)cc1 | – | AC50: 9.97 µM
7 | CCN1C(=O)C(CC(=O)Nc2ccc(F)cc2)N(Cc2ccc3c(c2)OCO3)C1=S (stereo not given) | inactive | –
8 | O=C(Nc1cc(Cl)cc(Cl)c1)N[C@@H]1CC[C@@H](CCNS(=O)(=O)c2cccc(F)c2)O[C@@H]1CO | inactive | –
9 | Cc1cc(NC(=O)Nc2ccc3c(ccn3C)c2)sn1 | – | AC50: 24.7 µM
10 | CC(=O)Nc1cccc(C(=O)N/N=C/c2c[nH]c3ccccc23)c1 | inactive | –
11 | O=C(NCCc1c[nH]c2ccccc12)c1ccc(Cl)cc1 | inactive | –
12 | CC(=O)Nc1cccc(NC(=O)c2ccc3[nH]c(C)c(C)c3c2)c1 | inactive | –
13 | COc1cc(/C=N/NC(=O)c2cc3ccccc3[nH]2)ccc1O | – | AC50: 10.1 µM
14 | Cc1ccc(S(=O)(=O)N2C[C@@H](O)COC[C@@H]3O[C@@H](CC(=O)NCc4ccc(Cl)c(Cl)c4)CC[C@H]32)cc1 | inactive | –
15 | O=C(Nc1ccc(S(=O)(=O)N2CCCC2)cc1)c1cccs1 | inactive | –
16 | Cc1[nH]c2ccc(C(=O)OCC(=O)Nc3cccc(S(N)(=O)=O)c3)cc2c1C | inactive | –
17 | CC(=O)Nc1ccc(NC(=O)Nc2ccccc2)cc1 | – | melting temperature shift, positive = stabilization (at 19.5 µM (top of the series)): inactive
18 | O=C(N/N=C/c1ccc(C(F)(F)F)cc1)c1ccc(O)cc1 | inactive | –
19 | CCN1C/C(=C/c2cccs2)c2nc3ccccc3c(C(=O)O)c2C1 | inactive | –
20 | O=C(Nc1nccs1)C1CC(=O)N(c2ccc(F)cc2)C1 (stereo not given) | inactive | –
21 | Nc1ccc(C(=O)N/N=C/c2c[nH]c3ccccc23)cc1 | – | AC50: 24.3 µM
22 | O=C(O)Cc1ccc(NC(=O)c2ccc(Cl)c(Cl)c2)cc1 | inactive | –
23 | O=C(N/N=C/c1c[nH]c2ccccc12)c1cccc(O)c1 | – | AC50: 0.318 µM
24 | Cc1ccc(S(=O)(=O)N2C[C@H](O)COC[C@H]3O[C@H](CC(=O)NCc4ccc(Cl)c(Cl)c4)CC[C@@H]32)cc1 | inactive | –
25 | Cc1cc(C(=O)N/N=C/c2c[nH]c3ccccc23)cs1 | inactive | –

Row | SMILES | melting temperature shift, positive = stabilization (at 38 µM (top of the series)) | further results
26 | CCNC(=O)C[C@@H]1CC[C@H]2[C@H](COc3ccc(NC(=O)Nc4ccc(Cl)cc4)cc3C(=O)N2C)O1 | inactive | –
27 | COC(=O)C[C@H]1CC[C@@H]2[C@@H](COc3ccc(NC(=O)Nc4ccc(C#N)cc4)cc3C(=O)N2C)O1 | – | AC50: > 38 µM (inactive)
28 | CCCNC(=O)COC(=O)c1ccccc1C(=O)N(C)C1CCCCC1 | inactive | –
29 | COc1ccc(C)cc1NS(=O)(=O)c1ccc(NS(=O)(=O)c2ccc(NC(C)=O)cc2)cc1 | inactive | –
30 | CC(C)c1c(C(=O)N/N=C/c2c[nH]c3ccccc23)nnn1-c1nonc1N | – | melting temperature shift, positive = stabilization (at 19.5 µM (top of the series)): inactive
31 | O=C(N/N=C/c1c[nH]c2ccccc12)c1cccc(Cl)c1 | – | AC50: 15.5 µM
32 | CCOc1cccc(C(=O)Nc2ccc3[nH]ncc3c2)c1 | inactive | –
33 | Clc1ccc(Nc2ccc(NCc3ccccc3)nn2)cc1 | inactive | –
34 | O=C(N/N=C/c1c[nH]c2ccccc12)c1ccc(O)c(O)c1 | inactive | –
35 | COc1ccc(Nc2nc3ccc(OC)cc3s2)cc1 | inactive | –
36 | COC(=O)C1=C(CS(=O)(=O)c2cc(OC)ccc2OC)NC(=O)NC1c1ccc(O)c(OC)c1 (stereo not given) | inactive | –
37 | CC(=O)c1ccc(NC(=O)Nc2cccnc2)cc1 | inactive | –
38 | COc1ccc(-c2nc(-c3ccc(O)cc3O)cs2)cc1OC | inactive | –
39 | Cc1ccc(OCCCC(=O)Nc2ccc(S(=O)(=O)N3CCOCC3)cc2)cc1 | inactive | –
40 | Nc1cccc(-c2nc3ccc(C(=O)c4ccccc4)cc3[nH]2)c1 | – | AC50: 29.5 µM
41 | O=C(N/N=C/c1c[nH]c2ccccc12)c1cccs1 | – | AC50: 5.49 µM
42 | O=C(C[C@H]1CC[C@@H]2[C@H](COC[C@H](O)CN2S(=O)(=O)c2cccc(Cl)c2)O1)Nc1ccccc1 | inactive | –
43 | O=C(N/N=C/c1cccc(Oc2ccccc2)c1)c1cccc(O)c1 | inactive | –
44 | CCc1cc(-c2[nH]ncc2-c2ccc3c(c2)OCCO3)c(O)cc1O | – | AC50: 24 µM
45 | CCc1cc(-c2n[nH]c(C)c2-c2ccc3c(c2)OCCO3)c(O)cc1O | inactive | –
46 | O=C(Nc1ccc(Cl)cc1)N[C@@H]1CC[C@@H](CCNS(=O)(=O)c2ccccc2F)O[C@H]1CO | inactive | –
47 | CN(Cc1c(C(=O)N/N=C/c2ccc(O)cc2)nnn1-c1nonc1N)c1ccccc1 | inactive | –
48 | Cc1[nH]c2ccccc2c1C(=O)NS(=O)(=O)Nc1ccc(Cl)cc1 | – | melting temperature shift, positive = stabilization (at 19.5 µM (top of the series)): inactive
49 | O=S1(=O)N=C(N(Cc2cccs2)c2ccc(O)cc2)c2ccccc21 | inactive | –
50 | O=C(Nc1cc(Cl)cc(Cl)c1)N[C@@H]1CC[C@@H](CCNS(=O)(=O)c2cccc(F)c2)O[C@H]1CO | inactive | –
